# Test results published in BindingDB's records for doi:10.7270/Q2D798W4 (Burnham Center For Chemical Genomics, 2010).
# Biological target: T1, Alkaline phosphatase, tissue-nonspecific isozyme (Homo sapiens, UniProt P05186)
# T1 sequence (P05186 whole entry): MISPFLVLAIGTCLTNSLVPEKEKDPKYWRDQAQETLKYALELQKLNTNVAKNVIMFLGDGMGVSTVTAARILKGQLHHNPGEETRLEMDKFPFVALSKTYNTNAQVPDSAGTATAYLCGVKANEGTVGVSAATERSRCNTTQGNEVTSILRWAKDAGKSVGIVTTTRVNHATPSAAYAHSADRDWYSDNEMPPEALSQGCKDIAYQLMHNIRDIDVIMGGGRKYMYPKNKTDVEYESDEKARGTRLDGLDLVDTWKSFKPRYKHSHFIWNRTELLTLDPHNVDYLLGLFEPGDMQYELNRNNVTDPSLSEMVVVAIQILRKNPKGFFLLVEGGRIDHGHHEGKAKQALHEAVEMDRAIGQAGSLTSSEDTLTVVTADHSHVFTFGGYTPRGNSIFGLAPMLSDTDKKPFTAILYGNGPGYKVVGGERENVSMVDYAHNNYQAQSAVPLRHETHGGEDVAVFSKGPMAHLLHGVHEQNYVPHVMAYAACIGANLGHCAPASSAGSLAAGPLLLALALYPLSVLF
# Test: inhibition of tissue-nonspecific alkaline phosphatase – biochemical, dose response (AID 488882)
row,IC50 [µM],SMILES
1,7.32,Cc1c(C(=O)NN=Cc2ccc(O)cc2O)[nH][nH]c1=O
2,38.1,"CCOC1=CC(=Cc2c(C)[nH]oc2=O)C=C(Br)C1=O [4-[(Z)-(3-bromo-5-ethoxy-4-oxo-1-cyclohexa-2,5-dienylidene)methyl]-3-methyl-2H-isoxazol-5-one]"
3,46.7,C=c1[nH]n(Cc2ccccc2)c(=O)c1=Cc1ccc(N(C)C)cc1 [(4Z)-4-[[4-(dimethylamino)phenyl]methylidene]-5-methyl-2-(phenylmethyl)-3-pyrazolone]
4,> 100,O=C(O)[C@H]1O[C@@H](Oc2c(-c3ccc(O)c(O)c3)oc3cc(O)cc(=O)c-3c2O)[C@H](O)[C@@H](O)[C@@H]1O [quercetin glucuronide]

# The remaining lines, values behind:
row,SMILES,IC50 [µM]
1,CC(N=Nc1ccccc1[N+](=O)[O-])c1ccc([N+](=O)[O-])cc1 (stereo unspecified),> 100
2,O=C(Nn1c(O)csc1=S)C(=O)Nn1c(O)csc1=S [SMR000349781],12.8
